Literature values as cited in patent US20250216408A1, “REAGENT COMBINATION AND METHOD FOR DETECTING TARGET IMMUNOSUPPRESSANT IN WHOLE BLOOD WITHOUT CENTRIFUGATION” (Shenzhen New Industries Biomedical Engineering co., Ltd., priority 2023, published 2025).

Experiments:
[1] = FK506 in plasma

Plasma protein binding rate [1]	Share of drug in whole blood taken up by / present in / bound to red blood cells	SMILES
over 98%	75%-80%	C=CC[C@@H]1/C=C(\C)C[C@H](C)C[C@H](OC)[C@H]2O[C@@](O)(C(=O)C(=O)N3CCCC[C@H]3C(=O)O[C@H](/C(C)=C/[C@@H]3CC[C@@H](O)[C@H](OC)C3)[C@H](C)[C@@H](O)CC1=O)[C@H](C)C[C@@H]2OC [FK506, tacrolimus]
–	95%	CO[C@H]1C[C@@H]2CC[C@@H](C)[C@@](O)(O2)C(=O)C(=O)N2CCCC[C@H]2C(=O)O[C@H]([C@H](C)C[C@@H]2CC[C@@H](O)[C@H](OC)C2)CC(=O)[C@H](C)/C=C(\C)[C@@H](O)[C@@H](OC)C(=O)[C@H](C)C[C@H](C)/C=C/C=C/C=C/1C [sirolimus]
